Data on two compounds can be found in the NIST ThermoML archive (doi:10.1021/je700339f).

The conditions of this data set: 101.33 kPa, Liquid.

Numbers after ± are expanded uncertainties.

As usually defined, the mass density is mass per unit of volume. On to `CC(=O)N(C)C` [N,N-dimethylethanamide], for which the mass density (298.15 K) is listed as 937 ± 0.4 kg/m3 and the mass density (308.15 K) came to 926.9 ± 0.4 kg/m3.

For the compound `CN(C)C=O` [dimethylformamide], the mass density runs as follows: (298.15 K) 943.8 ± 0.4 kg/m3; (308.15 K) 934.2 ± 0.4 kg/m3.
